Experiments:
RAR-γ-VP-16 = test: Example 12: assay for retinoid negative hormones, CV-1 cells; type: cell-based; details: 10^−9 to 10^−6 M, 18 hours, no agonist
RARγ = target: T1, RARγ (Homo sapiens, UniProt P13631); test: [3H]-ATRA displacement assay, baculovirus expressed receptor; type: binding; parameters: made in house; host or cells: baculovirus expression system
T1 sequence (P13631 1-454): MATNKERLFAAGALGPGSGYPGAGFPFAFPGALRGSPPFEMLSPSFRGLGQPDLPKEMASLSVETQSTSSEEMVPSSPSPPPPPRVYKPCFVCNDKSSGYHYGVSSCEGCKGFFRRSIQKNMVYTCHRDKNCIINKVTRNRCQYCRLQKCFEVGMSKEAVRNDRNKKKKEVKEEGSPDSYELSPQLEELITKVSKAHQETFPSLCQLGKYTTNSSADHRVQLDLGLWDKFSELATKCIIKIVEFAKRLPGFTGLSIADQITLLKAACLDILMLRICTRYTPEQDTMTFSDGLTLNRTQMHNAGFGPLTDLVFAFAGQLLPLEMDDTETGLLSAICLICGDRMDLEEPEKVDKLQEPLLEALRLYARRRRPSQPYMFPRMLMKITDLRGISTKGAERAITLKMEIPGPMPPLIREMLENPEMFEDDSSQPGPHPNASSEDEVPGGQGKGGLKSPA

RXRα = target: T2, RXRα (Homo sapiens, UniProt P19793); test: Holoreceptor transactivation assay; type: cell-based; details: relative to all trans retinoic acid; read-out: Transactivation Assay Efficacy (% of RA activity) RXRα
T2 construct: expressed in transfected cells; host or cells: CV1 cells
T2 sequence (P19793 1-462): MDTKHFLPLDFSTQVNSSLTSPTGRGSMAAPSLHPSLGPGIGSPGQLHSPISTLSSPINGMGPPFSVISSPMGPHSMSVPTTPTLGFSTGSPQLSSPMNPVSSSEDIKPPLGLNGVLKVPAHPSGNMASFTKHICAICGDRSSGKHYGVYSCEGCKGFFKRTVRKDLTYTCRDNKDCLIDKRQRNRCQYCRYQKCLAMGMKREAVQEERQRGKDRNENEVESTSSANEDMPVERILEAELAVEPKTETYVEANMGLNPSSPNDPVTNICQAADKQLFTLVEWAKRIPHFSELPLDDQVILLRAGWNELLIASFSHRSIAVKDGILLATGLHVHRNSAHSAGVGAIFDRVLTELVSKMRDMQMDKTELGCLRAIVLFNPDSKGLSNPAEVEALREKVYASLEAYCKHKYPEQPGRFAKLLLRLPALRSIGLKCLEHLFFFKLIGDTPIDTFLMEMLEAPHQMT
Text: (§1) A holoreceptor transactivation assay and a ligand binding assay which measure the antagonist/agonist like activity of the compounds of the invention, or their ability to bind to the several retinoid receptor subtypes, respectively, are described in published PCT Application No. WO93/11755 (particularly on pages 30-33 and 37-41) published on Jun. 24, 1993, the specification of which is also incorporated herein by reference. A description of the holoreceptor transactivation assay is also provided below.
(§2) CV1 cells (5,000 cells/well) were transfected with an RAR reporter plasmid MTV-TREp-LUC (50 ng) along with one of the RAR expression vectors (10 ng) in an automated 96-well format by the calcium phosphate procedure of Heyman et al. Cell 68: 397-406. For RXR-α and RXR-γ transactivation assays, an RXR-responsive reporter plasmid CRBPII-tk-LUC (50 ng) along with the appropriate RXR expression vectors (10 ng) was used substantially as described by Heyman et al. above, and Allegretto et al. J. Biol. Chem. 268: 26625-26633. For RXR-β transactivation assays, an RXR-responsive reporter plasmid CPRE-tk-LUC ([…]) along with RXR-β expression vector ([…]) was used as described in above. These reporters contain DRI elements from human CRBPII and certain DRI elements from promotor, respectively (see Mangelsdorf et al. The Retinoids: Biology Chemistry and Medicine, pp. 319-349, Raven Press Ltd., New York and Heyman et al., cited above). A β-galactosidase (50 ng) expression vector was used as an internal control in the transfections to normalize for variations in transfection efficiency. The cells were transfected in triplicate for 6 hours, followed by incubation with retinoids for 36 hours, and the extracts were assayed for luciferase and […] activities. The detailed experimental procedure for holoreceptor transactivations has been described in Heyman et al. above, and Allegretto et al. cited above. The results obtained in this assay are expressed in EC50 numbers, as they are also in the chimeric receptor transactivation assay. The Heyman et al. Cell 68: 397-406, Allegretto et al. J. Biol. Chem. 268: 26625-26633, and Mangelsdorf et al. The Retinoids: Biology, Chemistry, and Medicine, pp. 319-349, Raven Press Ltd., New York, are expressly incorporated herein by reference. The results of ligand binding assay are expressed in Kd numbers. (See Cheng et al. Biochemical Pharmacology 22: 3099-3108, expressly incorporated herein by reference.)

RXRβ = test: Holoreceptor transactivation assay; type: cell-based; details: relative to all trans retinoic acid
Text: as §1, §2

RXRγ = target: T3, RXRγ (Mus musculus, UniProt P28705); test: Holoreceptor transactivation assay; type: cell-based; details: relative to all trans retinoic acid; read-out: Transactivation Assay Efficacy (% of RA activity) RXRγ
T3 construct: expressed in transfected cells; host or cells: CV1 cells
T3 sequence (P28705 1-463): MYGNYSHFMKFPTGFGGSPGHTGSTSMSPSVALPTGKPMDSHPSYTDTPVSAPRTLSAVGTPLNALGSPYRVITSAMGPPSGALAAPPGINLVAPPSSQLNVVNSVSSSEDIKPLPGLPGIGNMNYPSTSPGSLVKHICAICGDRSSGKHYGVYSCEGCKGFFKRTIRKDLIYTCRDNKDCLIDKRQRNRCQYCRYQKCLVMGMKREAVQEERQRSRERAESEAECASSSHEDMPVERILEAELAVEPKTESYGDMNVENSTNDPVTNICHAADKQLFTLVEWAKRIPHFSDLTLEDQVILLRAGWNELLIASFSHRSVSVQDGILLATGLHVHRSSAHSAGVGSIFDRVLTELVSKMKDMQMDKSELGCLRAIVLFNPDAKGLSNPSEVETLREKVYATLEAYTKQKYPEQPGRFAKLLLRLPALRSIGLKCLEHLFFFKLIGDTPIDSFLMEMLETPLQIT
Text: as §1, §2

[1] = Table 12, relative affinity, competition of 3H-ATRA binding, Cheng-Prussof equation

SMILES | RAR-γ-VP-16 constitutive activity (negative hormone activity) (RAR-γ-VP-16) | Kd (RARγ; [1]) [nM] | Emax (RXRα) [%] | Transactivation Assay Efficacy (% of RA activity) RXRβ (RXRβ) | Emax (RXRγ) [%] | Kd (RARγ; Table 11) [nM]
CC1(C)CC=C(c2ccc(C(F)(F)F)cc2)c2cc(C#Cc3ccc(C(=O)O)cc3)ccc21 [Compound 23, 4-[(5,6-Dihydro-5,5-dimethyl-8-(4-trifluoromethylphenyl)-2-naphthalenyl)ethynyl]benzoic acid] | dose dependent repression of RAR-γ-VP-16 constitutive activity | 25 | 1 | 0.00 % of RA activity | 4 | 
CC1(C)CC=C(c2ccc(Cl)cc2)c2cc(C#Cc3ccc(C(=O)O)cc3)ccc21 [Compound 25, 4-[(5,6-Dihydro-5,5-dimethyl-8-(4-chlorophenyl)-2-naphthalenyl)ethynyl]benzoic acid] | dose dependent repression of RAR-γ-VP-16 constitutive activity | 13 | 5 | 0.00 % of RA activity | 3 | 
Cc1ccc(C2=CCC(C)(C)c3ccc(C#Cc4ccc(C(=O)O)cc4)cc32)cc1 [Compound 60, 4-[(5,6-dihydro-5,5-dimethyl-8-(4-methylphenyl)-2-naphthalenyl)ethynyl]benzoic acid] | dose dependent repression of RAR-γ-VP-16 constitutive activity | 6 | 3 | 0.00 % of RA activity | 3 | 3
CC(C)(C)c1ccc(C2=CCC(C)(C)c3ccc(C#Cc4ccc(C(=O)O)cc4)cc32)cc1 [Compound 61, 4-[(5,6-Dihydro-5,5-dimethyl-8-(4-(1,1-dimethylethyl)phenyl)-2-naphthalenyl)ethynyl]benzoic acid] |  |  | 1 | 0.00 % of RA activity | 3 | 
Cc1ccc(C2=CCC(C)(C)c3ccc(C(=S)Nc4ccc(C(=O)O)c(F)c4)cc32)cc1 [Compound 63, 2-fluoro-4-[[(5,6-dihydro-5,5-dimethyl-8-(4-methylphenyl)-2-naphthalenyl)thiocarbonyl]amino]-benzoic acid] |  |  | 1 | 0.00 % of RA activity | 1 | 
Cc1ccc(C2=CCC(C)(C)c3cc(C(=O)C=Cc4ccc(C(=O)O)cc4)ccc32)cc1 [Compound 101, 4-[3-oxo-3-(7,8-dihydro-5-(4-methylphenyl)-8,8-dimethyl-2-naphthalenyl)-1-propenyl]-benzoic acid] |  |  | 1 | 0.00 % of RA activity | 3 | 
CC1(C)CC=C(c2ccccc2)c2ccc(C(=O)C=Cc3ccc(C(=O)O)cc3)cc21 [Compound 103, 4-[3-oxo-3-(7,8-dihydro-5-phenyl-8,8-dimethyl-2-naphthalenyl)-1-propenyl]-benzoic acid] |  |  | 0 | 0.0 % of RA activity | 2 | 

— patent US6469028B1, “Synthesis and use of retinoid compounds having negative hormone and/or anatgonist activities” (Allergan, Inc., priority 1995, dated 2002)
